SMILES strings stand for the structures. Like-named read-outs stand apart in the source and are kept apart here.

Holding throughout (assay type): biochemical
One experiment deals with T1, human Yes1 enzyme (Homo sapiens, UniProt P07947).
T1 construct: made in house
Kind of experiment: Yes1 enzyme inhibitory activity (time-resolved fluorometry, biotinylated peptide phosphorylation). The note with it: read-out: YES_IC50. Summed up:
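Inhibition was expressed against a compound-free control to give IC50, using TR-FRET read-out (Eu-cryptate anti-pTyr antibody, streptavidin-XL665).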

The next experiment has as its target T2, human Src enzyme (Homo sapiens, UniProt P12931).
T2 construct: purchased Carna Biosciences, Inc. 08-173
The experiment is described as follows: Src enzyme inhibitory activity (time-resolved fluorometry, biotinylated peptide phosphorylation). The note with it: read-out: SRC_IC50. Summed up: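 Compounds were tested for blocking tyrosine phosphorylation of a biotinylated peptide substrate by recombinant human Src. Phosphorylated product was quantified by time-resolved fluorometry using europium cryptate and XL665 conjugates, and IC50 was calculated against the compound-free control.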

Another experiment has as its target T3, human Lck enzyme (Homo sapiens, UniProt P06239).
T3 construct: purchased Carna Biosciences, Inc. 08-170
The experiment is described as follows: Lck enzyme inhibitory activity (time-resolved fluorometry, biotinylated peptide phosphorylation). Particulars: read-out: LCK_IC50. The gist of the method:
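Readout pairs a europium cryptate-labelled anti-phosphotyrosine antibody with XL665-streptavidin, measured by time-resolved fluorescence. IC50 derived from percent inhibition against untreated controls.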

[1] abbreviates: biotinylated peptide phosphorylation.

T2 sequence (P12931 whole entry): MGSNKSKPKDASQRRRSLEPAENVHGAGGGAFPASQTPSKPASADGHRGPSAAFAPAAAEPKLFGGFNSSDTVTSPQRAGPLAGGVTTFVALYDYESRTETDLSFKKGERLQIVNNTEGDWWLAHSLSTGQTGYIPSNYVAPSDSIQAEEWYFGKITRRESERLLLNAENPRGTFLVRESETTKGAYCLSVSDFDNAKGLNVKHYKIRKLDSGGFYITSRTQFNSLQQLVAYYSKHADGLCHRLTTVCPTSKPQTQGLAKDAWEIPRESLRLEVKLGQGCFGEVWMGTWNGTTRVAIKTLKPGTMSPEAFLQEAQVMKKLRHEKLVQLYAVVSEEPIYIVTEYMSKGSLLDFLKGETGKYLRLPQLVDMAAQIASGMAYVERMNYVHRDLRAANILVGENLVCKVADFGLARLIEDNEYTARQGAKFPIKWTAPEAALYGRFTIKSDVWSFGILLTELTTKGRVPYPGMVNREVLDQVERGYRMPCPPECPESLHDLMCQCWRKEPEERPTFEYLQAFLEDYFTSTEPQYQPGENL
T3 sequence (P06239 whole entry): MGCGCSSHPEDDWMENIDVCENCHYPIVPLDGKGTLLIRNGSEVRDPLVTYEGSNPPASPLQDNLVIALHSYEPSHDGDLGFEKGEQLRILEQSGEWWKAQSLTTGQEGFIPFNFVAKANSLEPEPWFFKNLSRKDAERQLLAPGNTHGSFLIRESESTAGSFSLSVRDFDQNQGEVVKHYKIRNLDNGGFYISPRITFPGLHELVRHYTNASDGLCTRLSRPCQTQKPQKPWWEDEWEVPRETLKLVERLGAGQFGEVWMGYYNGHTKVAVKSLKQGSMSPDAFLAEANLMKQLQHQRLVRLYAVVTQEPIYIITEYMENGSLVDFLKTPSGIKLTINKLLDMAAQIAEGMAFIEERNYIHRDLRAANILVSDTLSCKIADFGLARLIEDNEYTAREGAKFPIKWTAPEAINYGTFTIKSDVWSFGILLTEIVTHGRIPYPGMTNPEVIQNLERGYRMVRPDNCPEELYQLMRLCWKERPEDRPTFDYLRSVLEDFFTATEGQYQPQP
T1 sequence (P07947 whole entry): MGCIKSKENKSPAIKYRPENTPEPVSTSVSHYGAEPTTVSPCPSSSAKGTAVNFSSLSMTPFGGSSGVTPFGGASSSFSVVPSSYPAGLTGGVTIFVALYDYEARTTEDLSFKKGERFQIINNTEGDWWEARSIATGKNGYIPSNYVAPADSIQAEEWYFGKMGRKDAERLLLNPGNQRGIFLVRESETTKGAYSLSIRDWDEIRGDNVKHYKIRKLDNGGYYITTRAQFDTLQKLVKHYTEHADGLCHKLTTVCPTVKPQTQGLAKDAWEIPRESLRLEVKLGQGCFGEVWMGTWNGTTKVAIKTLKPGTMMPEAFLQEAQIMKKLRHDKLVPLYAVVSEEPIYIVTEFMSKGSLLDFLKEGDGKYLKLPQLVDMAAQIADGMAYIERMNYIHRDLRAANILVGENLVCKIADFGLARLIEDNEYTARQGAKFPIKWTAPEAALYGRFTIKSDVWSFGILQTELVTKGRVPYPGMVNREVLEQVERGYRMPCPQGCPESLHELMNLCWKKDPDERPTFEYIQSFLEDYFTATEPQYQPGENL

Take `Cc1cc(Oc2ccccc2F)ccc1-n1ncc(C(=O)c2cc3cc(N4CCOCC4)c(N4CCC(N5CCOCC5)CC4)cc3[nH]2)c1N` [Example 5-1-124, [5-amino-1-[4-(2-fluorophenoxy)-2-methylphenyl]pyrazol-4-yl]-[5-morpholin-4-yl-6-(4-morpholin-4-ylpiperidin-1-yl)-1H-indol-2-yl]methanone]: the IC50 stood at 0.99 nM on human Yes1 enzyme, 70 nM on human Src enzyme and 10 nM on human Lck enzyme.
Consider `Cc1cc2cc(C(=O)c3cnn(-c4cnc(Oc5c(F)cccc5F)cc4C)c3N)[nH]c2cc1NS(=O)(=O)c1cccc(Cl)c1` [Example 5-1-557, N-[2-[5-amino-1-[6-(2,6-difluorophenoxy)-4-methylpyridin-3-yl]pyrazole-4-carbonyl]-5-methyl-1H-indol-6-yl]-3-chlorobenzenesulfonamide], for which the IC50 on human Yes1 enzyme (setting [1]) was found to be 19 nM; at human Src enzyme (setting [1]) it was 1500 nM; on human Lck enzyme (setting [1]), 320 nM.
The like results for `Cc1cc(-n2ncc(C(=O)c3cc4cc(F)c(NS(N)(=O)=O)cc4[nH]3)c2N)ccc1Oc1ccccc1F` [Example 4-20-003, 2-[5-amino-1-[4-(2-fluorophenoxy)-3-methylphenyl]pyrazole-4-carbonyl]-5-fluoro-6-(sulfamoylamino)-1H-indole] were, in that order, 1.4 nM, 15 nM and 2.1 nM.
Regarding `Cc1cc(Oc2c(F)cccc2F)ncc1-n1ncc(C(=O)c2cc3cc(N4CCOCC4)c(NS(=O)(=O)C4CC4)cc3[nH]2)c1N` [Example 4-24-017, N-[2-[5-amino-1-[6-(2,6-difluorophenoxy)-4-methylpyridin-3-yl]pyrazole-4-carbonyl]-5-morpholin-4-yl-1H-indol-6-yl]cyclopropanesulfonamide], the results for the IC50 at human Yes1 enzyme (setting [1]), on human Src enzyme (setting [1]) and at human Lck enzyme (setting [1]) were 4.1 nM, 170 nM and 65 nM, respectively.
Take `Cc1cc(Oc2c(F)cccc2F)ncc1-n1ncc(C(=O)c2cc3cc(OC4CCN(C(C)C)CC4)c(N4CCN(S(C)(=O)=O)CC4)cc3[nH]2)c1N` [Example 5-1-187, [5-amino-1-[6-(2,6-difluorophenoxy)-4-methylpyridin-3-yl]pyrazol-4-yl]-[6-(4-methylsulfonylpiperazin-1-yl)-5-(1-propan-2-ylpiperidin-4-yl)oxy-1H-indol-2-yl]methanone]: the IC50 at human Yes1 enzyme was 0.62 nM; at human Src enzyme, 3.2 nM; on human Lck enzyme, 2.3 nM.
Turning to `Cc1cc(Oc2c(F)cccc2F)ncc1-n1ncc(C(=O)c2cc3cc(OC(F)F)c(N4C(=O)NC(C)(C)C4=O)cc3[nH]2)c1N` [Example 4-23-034, 3-[2-[5-amino-1-[6-(2,6-difluorophenoxy)-4-methylpyridin-3-yl]pyrazole-4-carbonyl]-5-(difluoromethoxy)-1H-indol-6-yl]-5,5-dimethylimidazolidine-2,4-dione], the IC50 at human Yes1 enzyme (setting [1]) is 1.5 nM; at human Src enzyme (setting [1]), 54 nM; at human Lck enzyme (setting [1]) it was 6.7 nM.
For `CC(C)N1CCC(c2cc3cc(C(=O)c4cnn(-c5ccc(Oc6ccccc6F)cc5)c4N)[nH]c3cc2F)CC1` [Example 5-1-004, [5-amino-1-[4-(2-fluorophenoxy)phenyl]pyrazol-4-yl]-[6-fluoro-5-(1-propan-2-ylpiperidin-4-yl)-1H-indol-2-yl]methanone], the IC50 was 0.78 nM at human Yes1 enzyme, 3.6 nM at human Src enzyme and 2.8 nM at human Lck enzyme.
As to `Cc1cncc(S(=O)(=O)Nc2cc3[nH]c(C(=O)c4cnn(-c5cnc(Oc6ccccc6F)cc5C)c4N)cc3cc2C)c1` [Example 5-1-488, N-[2-[5-amino-1-[6-(2-fluorophenoxy)-4-methylpyridin-3-yl]pyrazole-4-carbonyl]-5-methyl-1H-indol-6-yl]-5-methylpyridine-3-sulfonamide], the figures for the IC50 at human Yes1 enzyme (setting [1]), at human Src enzyme (setting [1]) and on human Lck enzyme (setting [1]) were 4.2 nM, 520 nM and 120 nM, respectively.
In the case of `Cc1cc(Oc2ccccc2F)ccc1-n1ncc(C(=O)c2cc3cc(C(C)C)c(Br)cc3[nH]2)c1N` [Example 5-1-260, [5-amino-1-[4-(2-fluorophenoxy)-2-methylphenyl]pyrazol-4-yl]-(6-bromo-5-propan-2-yl-1H-indol-2-yl)methanone], the IC50 on human Yes1 enzyme worked out at 8.5 nM; on human Src enzyme, 61 nM; at human Lck enzyme, 44 nM.
Regarding `Cc1cc(Oc2ccccc2F)ncc1-n1ncc(C(=O)c2cc3cc(N4CCOCC4)c(NS(=O)(=O)C4CC4)cc3[nH]2)c1N` [Example 4-24-014, N-[2-[5-amino-1-[6-(2-fluorophenoxy)-4-methylpyridin-3-yl]pyrazole-4-carbonyl]-5-morpholin-4-yl-1H-indol-6-yl]cyclopropanesulfonamide], the IC50 at human Yes1 enzyme (setting [1]) turned out to be 6.6 nM; on human Src enzyme (setting [1]), 360 nM; on human Lck enzyme (setting [1]), 97 nM.
As to `Cc1cc2cc(C(=O)c3cnn(-c4ccc(Oc5ccccc5F)cc4C)c3N)[nH]c2cc1NS(=O)(=O)CC(=O)NC(C)C` [Example 4-10-008, 2-[[2-[5-amino-1-[4-(2-fluorophenoxy)-2-methylphenyl]pyrazole-4-carbonyl]-5-methyl-1H-indol-6-yl]sulfamoyl]-N-propan-2-ylacetamide], the IC50 was found to be 2 nM on human Yes1 enzyme (setting [1]), 54 nM at human Src enzyme (setting [1]) and 9.6 nM on human Lck enzyme (setting [1]).
Consider `Cc1cc(Oc2c(F)cccc2F)ncc1-n1ncc(C(=O)c2cc3cc(OCC(F)F)c(NC4CCN(S(C)(=O)=O)CC4)cc3[nH]2)c1N` [Example 4-23-021, [5-amino-1-[6-(2,6-difluorophenoxy)-4-methylpyridin-3-yl]pyrazol-4-yl]-[5-(2,2-difluoroethoxy)-6-[(1-methylsulfonylpiperidin-4-yl)amino]-1H-indol-2-yl]methanone], for which the results for the IC50 on human Yes1 enzyme (setting [1]), on human Src enzyme (setting [1]) and on human Lck enzyme (setting [1]) were 3.6 nM, 21 nM and 11 nM, respectively.
The like results for `Cc1cc(Oc2ccccc2F)ncc1-n1ncc(C(=O)c2cc3cc(OC(F)F)c(C4CCN(S(C)(=O)=O)CC4)cc3[nH]2)c1N` [Example 4-17-009, [5-amino-1-[6-(2-fluorophenoxy)-4-methylpyridin-3-yl]pyrazol-4-yl]-[5-(difluoromethoxy)-6-(1-methylsulfonylpiperidin-4-yl)-1H-indol-2-yl]methanone] were, in that order, 1.8 nM, 14 nM and 4.9 nM.
As to `Cc1cc(Oc2c(F)cccc2F)ncc1-n1ncc(C(=O)c2cc3cc(OCC(F)F)c(-c4cnn(C)c4)cc3[nH]2)c1N` [Example 5-1-264, [5-amino-1-[6-(2,6-difluorophenoxy)-4-methylpyridin-3-yl]pyrazol-4-yl]-[5-(2,2-difluoroethoxy)-6-(1-methylpyrazol-4-yl)-1H-indol-2-yl]methanone], the IC50 at human Yes1 enzyme was 5.2 nM; at human Src enzyme, 26 nM; at human Lck enzyme it was 21 nM.
Regarding `Cc1cc2cc(C(=O)c3cnn(-c4cnc(Oc5c(F)cccc5F)cc4C)c3N)[nH]c2cc1N1CCC(N2CCOCC2)CC1` [Example 4-2-125, [5-amino-1-[6-(2,6-difluorophenoxy)-4-methylpyridin-3-yl]pyrazol-4-yl]-[5-methyl-6-(4-morpholin-4-ylpiperidin-1-yl)-1H-indol-2-yl]methanone], the IC50 on human Yes1 enzyme (setting [1]) turned out to be 2.4 nM; on human Src enzyme (setting [1]), 28 nM; on human Lck enzyme (setting [1]), 2.6 nM.
The corresponding values for `Cc1cc(Oc2c(F)cccc2F)ncc1-n1ncc(C(=O)c2cc3cc(OC(F)F)c(N4CCCC4=O)cc3[nH]2)c1N` [Example 4-21-008, 1-[2-[5-amino-1-[6-(2,6-difluorophenoxy)-4-methylpyridin-3-yl]pyrazole-4-carbonyl]-5-(difluoromethoxy)-1H-indol-6-yl]pyrrolidin-2-one] are 4.1 nM, 25 nM and 6.6 nM.
Take `Cc1cc(-n2ncc(C(=O)c3cc4cc(OC5CCN(C(C)C)CC5)c(Br)cc4[nH]3)c2N)c(F)cc1Oc1ccccc1F` [Example 5-1-212, [5-amino-1-[2-fluoro-4-(2-fluorophenoxy)-5-methylphenyl]pyrazol-4-yl]-[6-bromo-5-(1-propan-2-ylpiperidin-4-yl)oxy-1H-indol-2-yl] methanone]: the IC50 on human Yes1 enzyme was found to be 4.5 nM; at human Src enzyme, 220 nM; at human Lck enzyme, 60 nM.
For the molecule `Cc1cc2cc(C(=O)c3cnn(-c4ccc(Oc5ccccc5F)cc4C)c3N)[nH]c2cc1N1C(=O)NC(C)(C)C1=O` [Example 5-1-356, 3-[2-[5-amino-1-[4-(2-fluorophenoxy)-2-methylphenyl]pyrazole-4-carbonyl]-5-methyl-1H-indol-6-yl]-5,5-dimethylimidazolidine-2,4-dione], the IC50 on human Yes1 enzyme turned out to be 0.87 nM; on human Src enzyme it was 17 nM; on human Lck enzyme, 4.4 nM.
In the case of `Cc1cc(Oc2cc(F)ccc2Cl)ncc1-n1ncc(C(=O)c2cc3cc(F)c(NS(C)(=O)=O)cc3[nH]2)c1N` [Example 4-2-034, N-[2-[5-amino-1-[6-(2-chloro-5-fluorophenoxy)-4-methylpyridin-3-yl]pyrazole-4-carbonyl]-5-fluoro-1H-indol-6-yl]methanesulfonamide], the IC50 came to 4.6 nM at human Yes1 enzyme (setting [1]), 140 nM at human Src enzyme (setting [1]) and 44 nM on human Lck enzyme (setting [1]).
In the case of `Cc1cc(Oc2c(F)cccc2F)ncc1-n1ncc(C(=O)c2cc3cc(OCC(F)F)c(NS(=O)(=O)c4cccc(Cl)n4)cc3[nH]2)c1N` [Example 5-1-572, N-[2-[5-amino-1-[6-(2,6-difluorophenoxy)-4-methylpyridin-3-yl]pyrazole-4-carbonyl]-5-(2,2-difluoroethoxy)-1H-indol-6-yl]-6-chloropyridine-2-sulfonamide], the IC50 was found to be 3.5 nM on human Yes1 enzyme (setting [1]), 690 nM at human Src enzyme (setting [1]) and 21 nM at human Lck enzyme (setting [1]).

These data come from patent US10479780B2, “Aminopyrazole derivatives” (Chugai Seiyaku Kabushiki Kaisha, priority 2015, dated 2019).
